Data on eight compounds can be found in ChEMBL document CHEMBL3860045 (Bioorg Med Chem Lett, 2016).

The target of data set [1] is T1, High affinity choline transporter 1 (Homo sapiens) (UniProt Q9GZV3).
T1 sequence (whole entry): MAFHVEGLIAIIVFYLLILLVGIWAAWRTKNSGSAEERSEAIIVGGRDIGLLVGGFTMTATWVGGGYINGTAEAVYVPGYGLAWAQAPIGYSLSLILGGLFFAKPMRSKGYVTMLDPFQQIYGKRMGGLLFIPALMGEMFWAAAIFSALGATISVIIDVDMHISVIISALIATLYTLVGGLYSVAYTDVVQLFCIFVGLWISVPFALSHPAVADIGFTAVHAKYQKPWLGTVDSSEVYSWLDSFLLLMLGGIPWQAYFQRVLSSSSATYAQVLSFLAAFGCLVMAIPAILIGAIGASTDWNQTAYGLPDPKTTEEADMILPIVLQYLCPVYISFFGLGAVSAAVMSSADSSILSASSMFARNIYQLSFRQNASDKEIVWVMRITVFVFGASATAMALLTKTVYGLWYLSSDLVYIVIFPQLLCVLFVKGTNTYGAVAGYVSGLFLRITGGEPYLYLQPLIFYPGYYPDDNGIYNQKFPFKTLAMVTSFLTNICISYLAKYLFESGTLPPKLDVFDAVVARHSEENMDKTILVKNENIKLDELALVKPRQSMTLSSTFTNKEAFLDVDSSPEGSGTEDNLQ
The data set can be described thus: Inhibition of [3H]choline uptake at human choline transporter expressed in HEK293 cells at 5 uM preincubated for 15 mins followed by [3H]choline addition measured after 10 to 15 mins by scintillation proximity assay relative to control. The format is cell-based. In general terms: In a scintillation proximity assay essentially only radioactivity close to the scintillant gives light.

Data set [2] concerns the target T2, High affinity choline transporter 1 (Homo sapiens, UniProt Q9GZV3).
T2 sequence (Q9GZV3 whole entry): T1 sequence (whole entry)
The data set can be described thus: Inhibition of [3H]choline uptake at human choline transporter expressed in HEK293 cells preincubated for 15 mins followed by [3H]choline addition measured after 10 to 15 mins by scintillation proximity assay. The format is cell-based.

Data set [3] in a line: Drug uptake in cannulated Sprague-Dawley rat brain at 1 mg/kg, iv administered twice at 24 hrs interval followed by 0.75 min of isoflurane treatment post 15 min second dose measured after […] by LC-MS/MS analysis. In kind it is ADME, organism-based. Conditions: read-out: Drug uptake.
A short description of data set [4]: Intrinsic clearance in rat liver microsomes at 1 uM preincubated with microsomes followed by NADPH addition measured up to 45 mins by LC-MS/MS analysis. The note with it: read-out: CLH. The format is ADME. On the technique in general: Liver microsomes are a subcellular fraction often used to study metabolism.
Data set [5] is described as follows: Plasma concentration in cannulated Sprague-Dawley rat at 1 mg/kg, iv after […] by LC-MS/MS analysis. In kind it is ADME, organism-based.
The nature of data set [6]: Ratio of drug level in cannulated Sprague-Dawley rat brain to plasma at 1 mg/kg, iv. In kind it is ADME, organism-based.
Data set [7] is described as follows: Intrinsic clearance in human liver microsomes at 1 uM preincubated with microsomes followed by NADPH addition measured up to 45 mins by LC-MS/MS analysis. The format is ADME. Conditions: read-out: CLH.
Data set [8] in a line: Half life in cannulated Sprague-Dawley rat plasma at 1 mg/kg, iv by LC-MS/MS analysis. The format is ADME, organism-based.
Data set [9] in a line: Fraction unbound in rat plasma after 4 hrs by LC-MS/MS based equilibrium dialysis method. In kind it is ADME, cell-free. A general note: In equilibrium dialysis only unbound substance equilibrates across the membrane.
Data set [10] in a line: Volume of distribution at steady state in cannulated Sprague-Dawley rat at 1 mg/kg, iv up to 24 hrs by LC-MS/MS analysis. In kind it is ADME, organism-based. Conditions: in vivo.
A short description of data set [11]: Fraction unbound in rat brain after 4 hrs by LC-MS/MS based equilibrium dialysis method. The format is ADME, tissue-based.
The nature of data set [12]: Fraction unbound in human plasma after 4 hrs by LC-MS/MS based equilibrium dialysis method. In kind it is ADME, cell-free.
The subject of data set [13] is Rattus norvegicus. The data set can be described thus: Cognitive enhancing effect in ip dosed rat assessed as increase in recognition index treated 30 mins prior test measured after 24 hrs by novel object recognition test relative to vehicle-treated control. In kind it is functional, organism-based.
Another data set has as its target Cytochrome P450 2C9 (Homo sapiens, UniProt P11712). The data set can be described thus: Inhibition of human CYP2C9. The format is ADME.
Data set [14] relates to Rattus norvegicus. In words: Cognitive enhancing effect in rat assessed as increase in recognition index at 3 mg/kg, ip treated 30 mins prior test measured after 24 hrs by novel object recognition test relative to vehicle-treated control. In kind it is functional.
The target of a further data set is Cytochrome P450 2D6 (Homo sapiens, UniProt P10635). The data set can be described thus: Inhibition of human CYP2D6. The format is ADME.
The test system of data set [15] is Rattus norvegicus. The data set can be described thus: Cognitive enhancing effect in rat assessed as increase in recognition index at 10 mg/kg, ip treated 30 mins prior test measured after 24 hrs by novel object recognition test relative to vehicle-treated control. The format is functional.
The target of a further data set is T3, Cytochrome P450 1A2 (Homo sapiens, UniProt P05177).
T3 sequence (P05177 whole entry): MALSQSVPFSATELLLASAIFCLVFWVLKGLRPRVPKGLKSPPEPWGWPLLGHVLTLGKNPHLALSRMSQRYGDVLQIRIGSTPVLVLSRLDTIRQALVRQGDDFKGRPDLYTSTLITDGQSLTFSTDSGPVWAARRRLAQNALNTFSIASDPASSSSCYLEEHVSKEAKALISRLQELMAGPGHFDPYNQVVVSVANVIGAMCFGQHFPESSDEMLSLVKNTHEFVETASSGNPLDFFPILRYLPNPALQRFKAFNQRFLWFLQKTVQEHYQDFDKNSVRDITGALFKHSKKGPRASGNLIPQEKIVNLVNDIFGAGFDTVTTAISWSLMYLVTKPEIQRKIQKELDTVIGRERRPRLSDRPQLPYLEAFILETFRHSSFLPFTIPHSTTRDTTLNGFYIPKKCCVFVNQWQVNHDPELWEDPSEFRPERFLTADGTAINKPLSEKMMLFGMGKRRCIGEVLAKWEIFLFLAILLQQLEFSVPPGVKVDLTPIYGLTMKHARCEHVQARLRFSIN
The data set can be described thus: Inhibition of human CYP1A2. The format is ADME.

Data set [16] is described as follows: Plasma clearance in cannulated Sprague-Dawley rat at 1 mg/kg, iv up to 24 hrs by LC-MS/MS analysis. The format is ADME, organism-based.
A further data set concerns the target Cytochrome P450 3A4 (Homo sapiens, UniProt P08684). The data set can be described thus: Inhibition of human CYP3A4. In kind it is ADME.
Data set [17] in a line: Ratio of unbound concentration in cannulated Sprague-Dawley rat brain to plasma at 1 mg/kg, iv. The format is ADME, organism-based. The note with it: read-out: K(p,uu,brain).
The test system of data set [18] is Rattus norvegicus. In words: Toxicity in rat at >10 mg/kg, ip. Conditions: in vivo. The format is organism-based.

Chain of Cytochrome P450 3A4 (P08684 whole entry): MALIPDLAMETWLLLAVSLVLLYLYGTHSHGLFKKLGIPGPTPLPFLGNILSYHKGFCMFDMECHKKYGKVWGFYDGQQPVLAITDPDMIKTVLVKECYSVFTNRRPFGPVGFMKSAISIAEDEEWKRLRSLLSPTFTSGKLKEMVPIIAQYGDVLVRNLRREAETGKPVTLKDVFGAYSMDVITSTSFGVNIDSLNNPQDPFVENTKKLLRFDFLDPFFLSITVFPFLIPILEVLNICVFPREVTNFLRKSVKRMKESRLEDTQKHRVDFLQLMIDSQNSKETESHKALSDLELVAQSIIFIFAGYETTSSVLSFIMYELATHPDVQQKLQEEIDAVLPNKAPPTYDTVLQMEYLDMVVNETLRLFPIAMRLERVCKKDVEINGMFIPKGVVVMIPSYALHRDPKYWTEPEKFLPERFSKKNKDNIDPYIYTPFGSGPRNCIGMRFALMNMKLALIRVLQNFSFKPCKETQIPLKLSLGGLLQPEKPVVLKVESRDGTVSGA
Chain of Cytochrome P450 2C9 (P11712 whole entry): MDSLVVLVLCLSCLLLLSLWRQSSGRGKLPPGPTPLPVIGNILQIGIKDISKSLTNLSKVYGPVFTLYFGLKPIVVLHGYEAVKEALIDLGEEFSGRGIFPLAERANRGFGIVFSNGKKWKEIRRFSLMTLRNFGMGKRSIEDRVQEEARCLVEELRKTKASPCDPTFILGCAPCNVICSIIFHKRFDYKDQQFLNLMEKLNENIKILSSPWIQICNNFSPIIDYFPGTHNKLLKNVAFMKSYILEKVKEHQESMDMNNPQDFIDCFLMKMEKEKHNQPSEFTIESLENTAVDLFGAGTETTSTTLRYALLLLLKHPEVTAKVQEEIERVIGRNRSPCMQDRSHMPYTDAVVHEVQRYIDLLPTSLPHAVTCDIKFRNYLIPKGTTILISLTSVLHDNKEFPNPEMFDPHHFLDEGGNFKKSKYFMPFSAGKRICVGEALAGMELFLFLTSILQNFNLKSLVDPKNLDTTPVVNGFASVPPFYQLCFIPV
Chain of Cytochrome P450 2D6 (P10635 whole entry): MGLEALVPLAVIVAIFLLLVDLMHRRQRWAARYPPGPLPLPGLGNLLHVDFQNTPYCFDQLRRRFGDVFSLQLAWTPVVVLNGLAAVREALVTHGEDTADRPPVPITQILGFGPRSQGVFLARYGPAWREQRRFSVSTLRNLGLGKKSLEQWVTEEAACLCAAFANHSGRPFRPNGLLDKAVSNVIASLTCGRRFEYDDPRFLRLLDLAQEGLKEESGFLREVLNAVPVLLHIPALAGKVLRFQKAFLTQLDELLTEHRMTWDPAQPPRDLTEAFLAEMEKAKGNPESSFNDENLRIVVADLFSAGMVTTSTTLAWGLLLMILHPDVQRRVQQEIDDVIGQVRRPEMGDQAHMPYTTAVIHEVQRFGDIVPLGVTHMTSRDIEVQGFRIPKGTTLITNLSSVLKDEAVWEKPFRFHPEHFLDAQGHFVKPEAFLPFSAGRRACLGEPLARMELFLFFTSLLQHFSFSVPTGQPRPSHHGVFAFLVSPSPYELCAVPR

For `CC(C)c1cc(CNC(=O)c2cccc(OC3CCN(C(C)C)CC3)c2)on1`, the inhibition in data set [1] is > 50%. This compound came in with an IC50 in data set [2] of 1.84 µM.

In the case of `CC(C)c1cc(CNC(=O)c2cccc(OC3CCN(C)CC3)c2)on1`, the inhibition in [1] is > 50%. For the same compound, the IC50 in [2] amounted to 0.64 µM.

Turning to `CC(C)c1cc(CNC(=O)c2ccc(F)c(OC3CCN(C)CC3)c2)on1`, in [1], the inhibition was > 50%. In data set [2], this compound had a half-maximal inhibitory concentration (IC50) of 0.467 µM.

For the compound `CC(C)c1cc(CNC(=O)c2ccc(C#N)c(OC3CCN(C)CC3)c2)on1`, in data set [1], the inhibition is > 50%. In data set [2], the IC50 came to 3.35 µM.

With `COc1ccc(C(=O)NCc2cc(C(C)C)no2)cc1OC1CCN(C)CC1`, the concentration at […] in data set [3] was determined as 23.4 ng/g; in data set [5], 129 ng/mL. The CLint scaled at 1 µM worked out at 95 mL/min/kg in [4] and 10.4 mL/min/kg in [7]. The partition ratio (Kp) in data set [6] was 0.18. In [8] (in vivo), this compound displayed a t1/2 of 0.55 h. Besides, the Fu in [9] (4 h) is on record as 0.35; in data set [12] (4 h) it was 0.67. The compound also returned a Vdss in data set [10] (24 h) of 3.2 L/kg. Besides, in data set [11], the fraction unbound at 4 h was 0.36.

In the case of `COc1cc2c(cc1OC)C(=O)C(CC1CCN(Cc3ccccc3)CC1)C2` (stereo not drawn), the Activity result in the data set with Rattus norvegicus [13] is “Dose-dependent effect”.

Take `CC(C)c1cc(CNC(=O)c2ccc(C(F)(F)F)c(OC3CCN(C)CC3)c2)on1`: the inhibition in data set [1] was > 50%. Further, the IC50 in data set [2] is > 10 µM.

On to `CC(C)c1cc(CNC(=O)c2ccc(Cl)c(OC3CCN(C)CC3)c2)on1`, for which the concentration at […] in [3] was 16.3 ng/g; in data set [5], 47.2 ng/mL. The CLint scaled at 1 µM was 42.5 mL/min/kg in data set [4] and 10.4 mL/min/kg in data set [7]. In addition, the inhibition in data set [1] is > 50%. The IC50 against Cytochrome P450 2C9 was > 30 µM; in data set [2], 0.27 µM; on Cytochrome P450 2D6 it was > 30 µM; against Cytochrome P450 1A2, > 30 µM; against Cytochrome P450 3A4, > 30 µM. Moreover, the Activity with Rattus norvegicus [14] was 28%; with Rattus norvegicus [15] it was 24%; in the data set on Rattus norvegicus [13], “Dose-dependent effect”; in the data set with Rattus norvegicus [18] it was “Toxic”. For the same compound, in data set [6], the partition ratio (Kp) amounted to 0.34. Further, the half-life in [8] (Sprague-Dawley, plasma) was determined as 1.95 h. Moreover, the clearance in data set [16] is 1.54 mL/min/kg. Besides, the fraction unbound at 4 h in data set [9] was determined as 0.19; in [11], 0.65; in data set [12], 0.31. The Vd in data set [10] (Sprague-Dawley, read-out: Vdss) amounted to 0.3 L/kg. Moreover, the Kp uu in [17] came out at 0.71.

A word on the inhibition: it is how much of the control response was suppressed. A low value points to a weak effect. One may read the IC50 as the concentration that inhibits the measured activity by half. Low values mean greater potency, high ones weaker potency. As a reminder, the Kp is the ratio of the level in a tissue or fluid to that in plasma or blood. Usually Vdss stands for the apparent volume that relates the amount in the body to the concentration in plasma or blood. The fraction unbound is free concentration divided by total concentration. Higher therefore signals much free substance. What is called half-life is how long it takes for the measured level to halve. A higher half-life goes with slow loss. Broadly, the clearance is the volume of plasma or blood freed of the substance per unit of time. A low value points to inefficient removal.
